Measured values: article PMC6100056, “Antitumor Effects and Delivery Profiles of Menahydroquinone-4 Prodrugs with Ionic or Nonionic Promoiety to Hepatocellular Carcinoma Cells” (Molecules : A Journal of Synthetic Chemistry and Natural …, 2018)
Counter-ions that a name gives are not always drawn.

Experiments:
esterase = test: Regeneration (hydrolysis) of MKH-ester derivatives to MKH in S9 fractions; assay type: in vitro ADME; settings: human, pH 7.4, 37 °C, Michaelis-Menten fit, 95% confidence interval in square brackets
Description: To assess the regeneration to the parental form, MKH, from the MKH-ester derivatives by an esterase of HCC, MKH-ACT, MKH-DMG and MKH-SUC were incubated at 37 °C in S9 fractions obtained from PLC/PRF/5 or SK-Hep-1 cells. The velocities of MK-4 generated in the S9 fractions were plotted as the amount of MKH, because MKH is rapidly oxidized to MK-4 during drug extraction and measurement. The regeneration versus […] profile was fitted by the Michaelis--Menten model (shown in Figure 4) and the kinetic parameters were calculated (Table 2). The regeneration velocities of MKH-ACT in both PLC/PRF/5 and SK-Hep-1 cells reached a plateau at about 3 μM MKH-ACT. MKH-DMG reached a plateau in PLC/PRF/5 and SK-Hep-1 cells at 25 μM and about 6 μM MKH-DMG, respectively. MKH-SUC reached a plateau in PLC/PRF/5 and SK-Hep-1 cells at about 0.6 μM and about 1.5 μM MKH-SUC, respectively. The level scale of MKH regeneration from MKH-SUC was about 100-fold higher than those of MKH-ACT and MKH-DMG.
The hydrolysis of the esters was performed at 37 °C in S9 fractions of PLC/PRF/5 and SK-Hep-1 cells after ultrasonic homogenization and centrifugation (10,000× g, 1 h) in isotonic phosphate buffer (pH 7.4). Stock solutions of each ester were made in the same manner as the cell viability assay, and the solutions were diluted with 0.1% w/v albumin in PBS. The enzymatic reactions were initiated by adding 5 μL of the diluted of each ester into amber test tubes containing 95 μL of preheated S9 fractions. A BCA protein assay (PIERCE/Thermo Fisher Scientific Inc., Waltham, MA, USA) was used to determine protein concentrations, and the final S9 concentration was adjusted to 1.0 mg of protein/mL in PBS. The solutions were incubated at 37 °C, and at appropriate times, the aliquots from the reaction were combined with an equal volume of methanol and three times volume of n-hexane. The samples were vortexed for 2 min and centrifuged at 1750× g for 10 min. The upper layer (n-hexane) was collected and evaporated under nitrogen. The residue was reconstituted with 100 μL of methanol, sonicated for 10 s and subjected to LC-MS/MS analysis as described below.
The LC-MS/MS analysis was performed with the same instrument under the same conditions as in an earlier report, except for the following MS/MS-multiple reaction monitoring (MRM) setting and retention times: MRM: m/z 532→171, [M + H]^+ MKH-ACT adduct; m/z 664→187, [M + NH4]^+ MKH-SUC adduct; retention times: MKH-ACT, 1.7 min; and MKH-SUC, 1.1 min.
For the determination of Km and Vmax for the uptake and enzymatic activation of MKH-esters, concentration-dependency data were fit to the Michaelis--Menten equation:V = Vmax·[S]/(Km + [S])(1) where V represents the velocity of action between the substrate and transportation/enzymatic reaction, [S] refers to the concentration of the substrate and Km is defined as the concentration of substrate at the half-maximal rate of action (Vmax). Data were analyzed by GraphPad Prism (GraphPad Software).

PLC/PRF/5 cells = test: Cell viability assay (Cell Titer-Glo); assay type: cell-based; settings: for IC50: Homo sapiens, 95% confidence interval in square brackets; for IC50 lower than that of MK-4: 96 h of treatment
Description: (§1) To assess the effects of MKH-ester prodrugs on HCC cell proliferation, DCP-positive (PLC/PRF/5) and DCP-negative (SK-Hep-1) HCC cell lines were treated with various concentrations of MKH-ACT, MKH-DMG, MKH-SUC or MK-4 up to 96 h, and cell viability was determined.
(§2) Cell viability was determined using a previously reported method. Briefly, PLC/PRF/5 and SK-Hep-1 cells were plated at 5.0 × 10^3 cells/well in 96-well plates and allowed to attach for 48 h. MK-4 and MKH-ACT were dissolved in 99.5% ethanol. MKH-SUC was dissolved in DMSO. MKH-DMG was dissolved in sterilized water. Stock solutions of each drug (50 mM) were diluted to the intended final concentrations with medium. Cells were exposed to MK-4, MKH-ACT, MKH-DMG or MKH-SUC for up to 96 h, and cell viability was evaluated using the Cell Titer-Glo Luminescent Cell Viability Assay (Promega, Madison, WI, USA) according to the manufacturer’s instructions. IC50 values were determined by a log [drug] vs. normalized response-variable slope analysis of GraphPad Prism, version 6.0 (GraphPad Software, San Diego, CA, USA).

SK-Hep-1 cells = test: Cell viability assay (Cell Titer-Glo); assay type: cell-based; settings: for IC50 lower than that of MK-4: 96 h of treatment; for IC50: Homo sapiens, 95% confidence interval in square brackets
Description: as §1, §2

[1] = system: cyclin D1 and CDK4 in PLC/PRF/5 cells; test: Western blotting of cell cycle regulatory proteins; assay type: cell-based; settings: 24 h after treatment
Description: We previously reported that MKH-DMG regulates cell cycle-related proteins as a mechanism of MKH-DMG-induced growth inhibition in PLC/PRF/5, Hep3B and SK-Hep-1 cells. Thus, to clarify the mechanisms of the growth inhibition induced by the MKH-ester prodrugs, we analyzed cell cycle-related proteins using Western blotting (Figure 7).
HCC cells were plated at 1.5 × 10^5 cells/well in 6-well plates and allowed to attach for 48 h. Cells were treated with MK-4, MKH-ACT, MKH-DMG or MKH-SUC for 24 h. Western blotting was performed as described previously.

[2] = S9 fraction of PLC/PRF/5 cells, S9 of PLC/PRF/5 cells
[3] = S9 fraction of SK-Hep-1 cells, S9 of SK-Hep-1 cells

CC(=O)Oc1c(C)c(C/C=C(\C)CC/C=C(\C)CC/C=C(\C)CCC=C(C)C)c(OC(C)=O)c2ccccc12 [MKH-ACT, Menahydroquinone-4 1,4-bis acetate]
Km (esterase; [2]): 1.42 µM
Km (esterase; [3]): 1.32 µM
IC50 (PLC/PRF/5 cells; 72 h): 152 µM
IC50 (PLC/PRF/5 cells; 96 h): 114 µM
IC50 lower than that of MK-4 (SK-Hep-1 cells): 1.23 fold
IC50 (SK-Hep-1 cells; SK-HEP1, 72 h): 71.6 µM
IC50 (SK-Hep-1 cells; SK-HEP1, 96 h): 71.9 µM
Effect on cyclin D1 and CDK4 expression compared with controls [1]: did not affect

CC(C)=CCC/C(C)=C/CC/C(C)=C/CC/C(C)=C/Cc1c(C)c(OC(=O)CN(C)C)c2ccccc2c1OC(=O)CN(C)C [MKH-DMG, Menahydroquinone-4 1,4-bis-N,N-dimethylglycinate hydrochloride]
Km (esterase; [2]): 13.6 µM
Km (esterase; [3]): 3.24 µM
IC50 lower than that of MK-4 (PLC/PRF/5 cells): 3.17 fold
IC50 (PLC/PRF/5 cells; 48 h): 63 µM
IC50 (PLC/PRF/5 cells; 72 h): 33.4 µM
IC50 (PLC/PRF/5 cells; 96 h): 27.4 µM
IC50 lower than that of MK-4 (SK-Hep-1 cells): 3.61 fold
IC50 (SK-Hep-1 cells; SK-HEP1, 48 h): 71.3 µM
IC50 (SK-Hep-1 cells; SK-HEP1, 72 h): 32.5 µM
IC50 (SK-Hep-1 cells; SK-HEP1, 96 h): 24.4 µM
Effect on cyclin D1 and CDK4 expression compared with controls [1]: clearly suppressed

CC(C)=CCC/C(C)=C/CC/C(C)=C/CC/C(C)=C/Cc1c(C)c(OC(=O)CCC(=O)O)c2ccccc2c1OC(=O)CCC(=O)O [MKH-SUC, Menahydroquinone-4 1,4-bis hemisuccinate]
Km (esterase; [2]): 0.399 µM
Km (esterase; [3]): 0.74 µM
IC50 lower than that of MK-4 (PLC/PRF/5 cells): 4.32 fold
IC50 (PLC/PRF/5 cells; 48 h): 48.9 µM
IC50 (PLC/PRF/5 cells; 72 h): 26.6 µM
IC50 (PLC/PRF/5 cells; 96 h): 20.1 µM
IC50 lower than that of MK-4 (SK-Hep-1 cells): 12.3 fold
IC50 (SK-Hep-1 cells; SK-HEP1, 48 h): 78.1 µM
IC50 (SK-Hep-1 cells; SK-HEP1, 72 h): 15.8 µM
IC50 (SK-Hep-1 cells; SK-HEP1, 96 h): 7.16 µM
Effect on cyclin D1 and CDK4 expression compared with controls [1]: clearly suppressed
